Assay: In vitro liver microsome experiment (glucuronidation with UDPGA, UPLC-MS/MS detection)
Assay type: in vitro ADME
Settings: pooled human liver microsomes, alamethicin, 37° C., incubation 0 min and 6 h
Experimental: In Vitro Liver Microsome Experiment
Experimental group: 136 μL of 50 mM Tris buffer was added to a 1.5 mL centrifuge tube, added with 20 μL of 100 mM aqueous D-glucaro-1,4-lactone solution, 10 μL of 10 mM aqueous magnesium chloride (MgCl2) solution, 10 μL of 40 mg/mL pooled human liver microsomes, and 2 μL of 50 mg/mL alamethicin, respectively, and preincubated on ice for 15 min; 2 μL of 2 mg/mL substrate (3-PBA) was added, and preincubated with 100 mM uridine diphosphate glucuronic acid (UDPGA) solution for 5 min at 37° C.; 20 μL of preincubated UDPGA solution was added to the reaction system to start the reaction, and incubation proceeded. At 0 min and 6 h, 200 μL of glacial acetonitrile was added to the reaction system to terminate the reaction, respectively. The reaction system was vortexed for 1 min and centrifuged at 13,000 r/min for 10 min at 4° C. All supernatants were put in a test tube, nitrogen-blown at 37° C., and reconstituted with 200 μL of methanol. The samples were analyzed and detected by UPLC-MS/MS. The difference between the blank group and the experimental group was only that 3-PBA was not added, and the difference between the control group and the experimental group was only that UDPGA was not added. […]

## CC1(C)Cc2cccc(O)c2O1 [carbofuran phenol]
  phase II metabolism (formation of glucuronic acid conjugate) detected by UPLC-MS/MS: carbofuran phenol-glucuronic acid conjugate was detected

## O=C(O)c1cccc(Oc2ccccc2)c1 [3-PBA, 3-phenoxybenzoic acid]
  phase II metabolism (formation of glucuronic acid conjugate) detected by UPLC-MS/MS: underwent phase II metabolic reaction

— patent US12600741B2, “3-phenoxybenzoic acid-glucuronic acid conjugate, and preparation method and use thereof” (Shanxi Medical University, priority 2023, dated 2026)
